Patent US10842151B2, “Small molecule compound for enhancing plant stress resistance” (SHANGHAI INSTITUTES FOR BIOLOGICAL SCIENCES, CHINESE …, priority 2015, dated 2020)
Like-named read-outs stand apart in the source and are kept apart here. Each block holds one compound with its values, some of them ahead of it.

Legend:
[1] = target: T1, PYL2 + HAB1 (Arabidopsis thaliana, UniProt O80992); experiment: AlphaScreen experiment, PYL2 + HAB1; assay type: binding
T1 construct: made in house; host or cells: E. coli BL21 (DE3)
T1 sequence (O80992 14-188 limits assumed): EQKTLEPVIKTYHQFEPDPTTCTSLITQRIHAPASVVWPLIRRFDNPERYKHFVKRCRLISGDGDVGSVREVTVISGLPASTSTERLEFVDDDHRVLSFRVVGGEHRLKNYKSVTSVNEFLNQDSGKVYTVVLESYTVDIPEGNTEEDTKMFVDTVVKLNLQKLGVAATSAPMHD
T1 sequence (Q9CAJ0 172-511 partner limits assumed): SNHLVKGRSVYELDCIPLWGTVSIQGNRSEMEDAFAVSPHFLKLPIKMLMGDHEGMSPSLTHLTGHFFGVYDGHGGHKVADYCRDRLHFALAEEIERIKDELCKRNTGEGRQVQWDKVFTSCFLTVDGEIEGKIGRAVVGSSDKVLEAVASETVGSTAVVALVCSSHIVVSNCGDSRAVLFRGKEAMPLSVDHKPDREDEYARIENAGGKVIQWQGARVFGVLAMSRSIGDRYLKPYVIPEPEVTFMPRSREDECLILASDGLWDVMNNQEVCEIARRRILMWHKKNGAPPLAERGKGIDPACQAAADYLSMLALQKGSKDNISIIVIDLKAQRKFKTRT
Description: (§1) After incubating for 1.5 hours at room temperature in the dark, it was placed into an Envision Plate Reader (available from Perkin Elmer) under the programmed AlphaScreen procedure for readings.

[2] = target: T2, PYL7 + HAB1 (Arabidopsis thaliana, UniProt Q1ECF1); experiment: AlphaScreen experiment, PYL7 + HAB1; assay type: binding
T2 construct: made in house; host or cells: E. coli BL21 (DE3)
T2 sequence (Q1ECF1 1-211): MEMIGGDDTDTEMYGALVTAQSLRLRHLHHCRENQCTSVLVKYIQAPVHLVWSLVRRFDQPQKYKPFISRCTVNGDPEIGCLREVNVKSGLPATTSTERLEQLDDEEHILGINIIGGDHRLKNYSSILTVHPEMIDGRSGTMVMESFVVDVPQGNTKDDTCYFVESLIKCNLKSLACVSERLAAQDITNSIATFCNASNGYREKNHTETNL
T2 sequence (Q9CAJ0 172-511 partner limits assumed): T1 sequence (Q9CAJ0 172-511 partner limits assumed)
Description: as §1

[3] = target: T3, PYR1 + HAB1 (Arabidopsis thaliana, UniProt O49686); experiment: AlphaScreen experiment, PYR1 + HAB1; assay type: binding; details: column 2
T3 sequence (O49686 1-191): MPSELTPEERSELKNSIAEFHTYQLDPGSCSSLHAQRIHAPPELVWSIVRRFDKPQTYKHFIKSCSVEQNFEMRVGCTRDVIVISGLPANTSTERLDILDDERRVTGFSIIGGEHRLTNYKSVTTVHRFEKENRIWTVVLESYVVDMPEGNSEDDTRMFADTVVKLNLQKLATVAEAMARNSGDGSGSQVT
T3 sequence (Q9CAJ0 172-511 partner): T1 sequence (Q9CAJ0 172-511 partner limits assumed)
Description: as §1

[4] = system: PYR/PYL receptors (PYR1, PYL1, PYL2 and PYL7)-HAB1 complex; experiment: Broad spectrum experiment on PYR/PYL receptors (HAB1 phosphatase activity); assay type: biochemical, Arabidopsis; details: 1 μM
Description: (§2) HAB1 Phosphatase Activity Assay […] The reaction system was incubated at room temperature for 30 minutes, followed by a further reaction for 30 minutes after adding an 11-amono acid phosphorylated polypeptide as a substrate. The phosphorylated polypeptide consisting of amino acid 170-180 of SnRK2.6 protein kinase (sequence […]) was purchased from […] company, wherein phosphorylated […] was a known HAB1 dephosphorylation target site. After 30 minutes, chromogenic reagent (purchased from BioVision) was added and the absorbance at 650 nm was read on a microplate reader (Molecular Devices).

[5] = system: soybean GmPYL3 and GmPYL6 + Arabidopsis AtHAB1; experiment: AlphaScreen experiment with soybean GmPYL receptors; assay type: binding; details: FIG. 9
Description: as §1

[6] = system: Arabidopsis thaliana Col-0 ecotype seeds; experiment: Seed germination, Col-0; assay type: in vivo; details: 1 μM; six days after seeding
Text: (§3) Two lines of plant were sown simultaneously on a single medium of 6 cm diameter, with 15 seeds sown for each line and 4 replicates for each compound. […]

[7] = system: pyr1;pyl1;pyl4 triple mutant seeds; experiment: Seed germination, PYR/PYL triple mutant; assay type: in vivo, Arabidopsis thaliana; details: 1 μM; six days after seeding
Text: as §3

[8] = system: Arabidopsis Col-0 ecotype; experiment: Soil drought experiment, Arabidopsis; assay type: in vivo, Arabidopsis thaliana
Description: Seeds of Arabidopsis Col-0 ecotype were sterilized with NaClO and then sown on ½ MS solid medium at 4° C. for 3 days of vernalization. After 6 days of growing, the well-grown seedlings having uniform size were selected and transferred into 8×7×6 cm^3 pots. Each pot was filled with the same weight of soil and the same number of plants (six plants) was planted to reduce experimental error. All the pots were subjected to a short-day culture at 22° C. After two weeks, watering was stopped for drought treatment. […] The position of the flowerpot was changed every day during the process of drought to reduce the error caused by environmental factors. During the whole drought period, the solution was sprayed twice in total and photos were recorded regularly. The watering was resumed in about three weeks.

[9] = system: ABA-induced environmental stress-related gene expression; experiment: Gene expression analysis (fluorescence quantitative PCR); assay type: in vivo, Arabidopsis thaliana (Col-0); details: for expression levels of most ABA-induced stress-related genes compared with ABA: 10 μM, 6 hours of treatment, 10-day-aged seedlings
Description: The whole plant or leaves were taken, and RNA extraction was carried out by using conventional methods. After reverse transcription, the fluorescence quantitative PCR was carried out. Triple biological samples were taken for each treatment which was performed twice. The ACT7 gene was used as a reference gene.

[10] = target: T1, PYL2 + HAB1; experiment: HAB1 phosphatase activity assay with PYL2, SnRK2.6 phosphorylated polypeptide substrate; assay type: biochemical
Description: as §2

[11] = system: Arabidopsis ABA synthesis defective mutant aba2-1; assay type: in vivo, Arabidopsis thaliana; details: 5 μM sprayed; after two days; vs DMSO
[12] = system: soybean Williams 82; experiment: Soybean leaf transpiration experiment (thermal imaging); assay type: in vivo
Description: After three weeks of continuous watering, 0.05% tween-20 and corresponding concentrations of DMSO (control)/compound (+)-ABA/0918/1127 were sprayed onto the plants in a single administration with an amount of 1.2 ml/pot. Images were taken daily using the FLIR A655sc thermal imaging camera at the same time before and after spraying. The Williams 82 ecotype was used in soybean leaf transpiration experiments for compounds 0604c, 0918 and 1127 and was long-day cultured at 26° C. After the plants grew and had 3 leaves in each of 3 groups, 0.05% tween-20 and 50 μM DMSO (control)/(+)-ABA/0604c/0918/1127 compounds were sprayed in a single administration with an amount of 4 ml/pot. Images were taken daily using the FLIR A655sc thermal imaging camera at the same time before and after spraying.
(§4) Leaf transpiration experiments of soybean and cotton for compound 0720B were carried out at 26° C. with long-day lighting. 16 days and 23 days after sowing, a solution containing 0.1% tween-20 and corresponding concentration of (+)-ABA, or 0720B compound or 0.1% Tween-20 and 0.05% DMSO (control) was sprayed in an amount of 4 ml/pot. Images were taken daily using the FLIR A655sc thermal imaging camera at the same time before and after spraying.

[13] = system: cotton; experiment: Cotton leaf transpiration experiment (thermal imaging); assay type: in vivo; details: 50 μM; after two days; vs DMSO
Description: as §4

[14] = number in brackets, read-out: Half maximum effect concentration EC50 (PYL2 + HAB1)
[15] = number in brackets, read-out: Half maximum effect concentration EC50 (PYL7 + HAB1)
[16] = number in brackets, read-out: Half maximum effect concentration EC50 (PYR1 + HAB1)
[17] = 10 μM sprayed, after 17 days of drought
[18] = 5 μM sprayed, 18 days after drought

Compound: CCCN1C(=O)CCc2cc(NS(=O)(=O)Cc3ccc(C)c(F)c3)ccc21 [Compound 0604c]
- EC50 [1, 14]: 40 nM
- EC50 [2, 15]: 30 nM
- EC50 [3, 16]: 40 nM
- binding to PYR/PYL receptors [4]: could bind with PYR1/PYL1/PYL2/PYL3/PYL4/PYL5/PYL7/PYL10
- binding ability with PYR1/PYL1/PYL2/PYL7 compared with ABA ([4]; FIG. 1, FIG. 13): significantly higher than those of ABA
- affinities for soybean GmPYL proteins compared with ABA [5]: significantly higher affinities
- germination of Col-0 ecotype seeds [6]: could still inhibit germination of Col-0 ecotype seeds
- germination of pyr1;pyl1;pyl4 triple mutant seeds [7]: could not inhibit germination of PYR/PYL triple mutant pyr1;pyl1;pyl4 seeds
- plant survival [8, 17]: still survived
- expression levels of most ABA-induced stress-related genes compared with ABA [9]: significantly exceeded the level in the plants treated with 10 μM ABA
- expression level of relevant genes compared with ABA ([9]; one day after treatment, ABA 10 μM): significantly higher than that in the plants treated with 10 μM ABA

Compound: CCCN1C(=O)CCc2cc(NS(=O)(=O)Cc3ccc(C)cc3)ccc21 [AM1, 4-methyl-N-(1,2,3,4-tetrahydro-2-oxo-1-propyl-6-quinolinyl)-benzene methanesulfonamide, reference compound]
- EC50 [1, 14]: 480 nM
- inhibition ratio Z of HAB1 relative enzyme activity (PYL2 + HAB1) ([10]; at 0.1 μM, Z relative to ABA): 86%
- germination of Col-0 ecotype seeds [6]: could still inhibit germination of Col-0 ecotype seeds
- germination of pyr1;pyl1;pyl4 triple mutant seeds [7]: could not inhibit germination of PYR/PYL triple mutant pyr1;pyl1;pyl4 seeds
- leaf surface temperature [11]: higher than that of DMSO control group
- plant survival [8, 17]: died because of drought
- expression levels of most ABA-induced stress-related genes compared with ABA [9]: lower than the level in the plants treated with 10 μM ABA

Compound: CCCN1C(=O)CC(C)(C)c2cc(NS(=O)(=O)Cc3c(F)c(F)c(C)c(F)c3F)ccc21 [Compound 0825A]
- inhibition of the dephosphorylation effect of HAB1 on SnRK2.6 phosphorylated polypeptide compared with ABA ([10]; PYL2 receptor, same concentration as ABA): significantly better than that of ABA at the same concentration

Compound: CCCN1C(=O)CCc2cc(NS(=O)(=O)Cc3ccc(C)cc3F)ccc21 [Compound 1125A]
- EC50 [1, 14]: 30 nM
- EC50 [2, 15]: 40 nM
- EC50 [3, 16]: 50 nM

Compound: CCCn1c(=O)ccc2cc(NS(=O)(=O)Cc3c(F)c(F)c(C)c(F)c3F)ccc21 [Compound 0717]
- expression levels of most ABA-induced stress-related genes compared with ABA [9]: significantly exceeded the level in the plants treated with 10 μM ABA

Compound: CCCN1C(=O)CCc2cc(NS(=O)(=O)Cc3ccc(Cl)cc3F)ccc21 [Compound 0925]
- EC50 [1, 14]: 60 nM
- EC50 [3, 16]: 40 nM

Compound: CC1=CC(=O)CC(C)(C)[C@@]1(O)/C=C/C(C)=C\C(=O)O [ABA, Abscisic Acid, reference compound]
- EC50 ([1]; Half maximum effect concentration EC50 (PYL2 + HAB1), class, class symbol): 100 to 1000 nM
- EC50 ([1]; Half maximum effect concentration EC50 (PYL2 + HAB1), number in brackets): 410 nM
- EC50 ([2]; Half maximum effect concentration EC50 (PYL7 + HAB1), class, class symbol): 1000 to 10000 nM
- EC50 ([2]; Half maximum effect concentration EC50 (PYL7 + HAB1), number in brackets): 1070 nM
- EC50 ([3]; Half maximum effect concentration EC50 (PYR1 + HAB1), class, class symbol): 100 to 1000 nM
- EC50 ([3]; Half maximum effect concentration EC50 (PYR1 + HAB1), number in brackets): 700 nM
- germination of Col-0 ecotype seeds [6]: could still inhibit germination of Col-0 ecotype seeds
- germination of pyr1;pyl1;pyl4 triple mutant seeds [7]: could not inhibit germination of PYR/PYL triple mutant pyr1;pyl1;pyl4 seeds
- leaf surface temperature [11]: higher than that of DMSO control group
- leaf temperature ([12]; 50 μM sprayed, 0.2 μmol per plant, after three days, vs DMSO): had no difference with the control
- leaf temperature ([12]; two days after spraying, 0720B 20 μM or 50 μM, ABA 50 μM): had no difference from that in the control group
- leaf temperature [13]: had no difference from that in the control group
- plant survival [8, 18]: died because of drought
- plant survival [8, 17]: died because of drought

Compound: CCCN1C(=O)CCc2cc(NS(=O)(=O)Cc3c(F)c(F)c(C(F)(F)F)c(F)c3F)ccc21 [Compound 1020B]
- EC50 [1, 14]: 80 nM
- EC50 [3, 16]: 50 nM

Second part, led by results:

- EC50 [1, 14]: 80 nM
- EC50 [3, 16]: 140 nM
Compound: CCCN1C(=O)CCc2cc(NS(=O)(=O)Cc3ccc(C(F)(F)F)c(F)c3)ccc21 [Compound 1020A]

- EC50 [1, 14]: 20 nM
- EC50 [2, 15]: 20 nM
- EC50 [3, 16]: 20 nM
Compound: CCCN1C(=O)CCc2cc(NS(=O)(=O)Cc3cc(F)c(C)c(F)c3)ccc21 [Compound 1125B]
- plant survival [8, 18]: still survived

- EC50 [1, 14]: 50 nM
- EC50 [2, 15]: 150 nM
- EC50 [3, 16]: 120 nM
Compound: CCCN1C(=O)CCc2cc(NS(=O)(=O)Cc3ccc(C)c(Cl)c3)ccc21 [Compound 1103B]
